# Experimental data: patent US20160058829A1, “ANTI-FIBROTIC PEPTIDES AND THEIR USE IN METHODS FOR TREATING DISEASES AND DISORDERS CHARACTERIZED BY FIBROSIS” (Thrasos Innovation, Inc., priority 2011, published 2016)
# Positions of bridges follow the written chain, without caps; N, C: chain ends.
# Experiments:
# [1] = Pharmacokinetics and tissue distribution of 125I-labeled THR-123; assay type: in vivo, Wistar rats
# Excerpt: FIG. 45A-FIG. 45G Pharmacokinetics of THR-123. FIG. 45A. BMP7 structure figure with the residue weights resulting from the analysis mapped on to it. FIG. 45B, FIG. 45C. Radio-ligand receptor binding assays specific for individual type I receptors, Alk-3 (FIG. 45B) and Alk-6 (FIG. 45C). Highly purified extra-cellular domain (ECD) of Alk-3 or Alk-6 (expressed as a fusion protein with Fc domain) served as a receptor. In each assay purified receptor was immobilized on each well and peptide analog or unlabeled BMP7 was added, followed by ^125I-labeled BMP7. Radiolabeled BMP7 complex was counted in an auto-gamma counter. Results were expressed as the mean±s.e.m. Unlabeled BMP7, which served as a positive control in both assays, gave linear dose-related response curves. FIG. 45D, FIG. 45E. Concentration of THR-123 in systemic circulation of Wistar rats following iv injection of THR-123 (^125I-Tyr) via the tail vein determined by total radioactivity measurement. […] FIG. 45F. Tissue distribution of ^125I-THR-123. Six hours after intravenous administration of ^125I labeled-THR-123 in rats at a dose of 6.25 mg/kg-body weight, tissues were harvested and analyzed by automatic gamma well counter. […] FIG. 45G. Oral administration of THR-123 and elimination of THR-123 from the body. Radioactivity of orally administrated ^125I labeled-THR-123 at a dose of 5 mg/kg body weight was localized in the kidney between 1 and 6 hours after administration and peaked at around 3 hours.
# The persistence of THR-123 in systemic circulation was evaluated using iv-administered ^125I-labeled compound and following the radioactivity decay.
# [2] = test system: Alk-3 deleted mice and control mice, NTN; experiment: NTN in Alk-3 deleted (γGT-Cre; Alk3 flox/flox) and control mice; assay type: in vivo
# Method: FIG. 76A-FIG. 76T THR-123 acts on tubule Alk3 as a receptor in kidney disease models. FIG. 76A-FIG. 76D, The effect of THR-123 on the IRI model kidney injury in Alk3^flox/flox and […]GTCre; Alk3^flox/flox mice. After ischemia reperfusion injury the mice were given THR-123 orally (5 mg/kg/day) till the day of sacrifice. FIG. 76A-FIG. 76C, the representative H&E staining picture of indicated group of mice are shown. FIG. 76D. Percentage renal tubular necrosis in IRI. Ten fields in each group were analyzed. Data are shown as mean±s.e.m. in the graph. FIG. 76E-FIG. 76T, The effect of THR-123 on the NTN model kidney injury in Alk3^flox/flox and gGTCre; Alk3^flox/flox mice. Six weeks after NTN was introduced in the indicated groups of mice, mice were treated with PBS or THR-123 orally. FIG. 76E-FIG. 76H, the representative MTS staining picture of indicated group of mice are shown. FIG. 76I, Morphometric analyses from 9 weeks of NTN models in indicated groups. FIG. 76J-FIG. 76N, Macrophage accumulation analysis in the kidney of NTN model in Alk3^flox/flox and gGTCre; Alk3^flox/flox mice. FIG. 76J-FIG. 76M, Mac-1 immunofluorescence study of indicated groups of mice. FIG. 76N, The number of macrophages per field of view (×400 magnification) was assessed by counting positively labeled cells in 5 random fields of view per slide, with 5 slides per experimental group. Data are shown as mean±s.e.m. in the graph. FIG. 76O-FIG. 76S, EMT analysis, FIG. 76O-FIG. 76R, E-cadherin/FSP1 immunolabeling of kidney in NTN-induced Alk3^flox/flox and GTCre; Alk3^flox/flox mice treated with either PBS or THR-123. FIG. 76S. Percent of E-cadherin/FSP1 double positive tubule. 500 tubules per slide, 5 slides per experimental group were analyzed. Data are expressed as mean±s.e.m. in the graph. FIG. 76T, Blood urea nitrogen measurement in 6 and 9 weeks of NTN in indicated groups of mice (all n=4).
# FIG. 79A-FIG. 79D. Tubule cell apoptosis was analyzed in frozen kidney sections of indicated groups of animals by TUNEL staining. Representative pictures were shown. FIG. 79D. Quantification of TUNEL positive tubule cells. The number of TUNEL positive tubules per field of view (×200 magnification) was assessed by counting positively labeled cells in 5 random fields of view per slide, with 5 slides per experimental group.
# Alk-3 flox mice are provided by Dr. Yuji Mishina, National Institutes of Health with material transfer agreements. γGT-Cre mice are provided from Dr. Eric Neilson, Vanderbilt University Medical Center. NTN is induced by the method described above.
substance,measurement,setting,value
(H)-CYFDDSSNVLCKKYRS-(OH) (H-CYFDDSSNVLCKKYRS-OH; disulfide 1-11; SMILES CC(C)C[C@@H]1NC(=O)[C@H](C(C)C)NC(=O)[C@H](CC(N)=O)NC(=O)[C@H](CO)NC(=O)[C@H](CO)NC(=O)[C@H](CC(=O)O)NC(=O)[C@H](CC(=O)O)NC(=O)[C@H](Cc2ccccc2)NC(=O)[C@H](Cc2ccc(O)cc2)NC(=O)[C@@H](N)CSSC[C@@H](C(=O)N[C@@H](CCCCN)C(=O)N[C@@H](CCCCN)C(=O)N[C@@H](Cc2ccc(O)cc2)C(=O)N[C@@H](CCCNC(=N)N)C(=O)N[C@@H](CO)C(=O)O)NC1=O) [SEQ ID NO: 1],share of the injected dose in the beta phase,[1]; iv,10%
same,alpha phase half-life,"[1]; iv, 125I-labeled",very short half-life
same,beta phase half-life,"[1]; iv, 125I-labeled",55 to 58 min
same,decrease of THR-123 levels in plasma and whole blood within 5 minutes,"[1]; iv, 125I-labeled",~90%
same,share of the injected dose in the alpha phase,"[1]; iv, tail vein, total radioactivity",approximately 90%
same,clearance of radioactivity from the kidney,"[1]; oral, 24 hours after administration",completely cleared
same,tissue distribution of radioactivity,"[1]; six hours after iv 6.25 mg/kg, listed as THR-123, 6.25 mg/kg",majority of the radioactivity was still localized in the kidney and bladder
same,"renal function (blood urea nitrogen), NTN",[2]; Alk3-deleted mice,not realized
same,"EMT program in the tubules, NTN",[2]; Alk3 deleted mice,did not inhibit
same,"apoptosis, NTN kidney",[2]; Alk3 deleted mice,no effect on apoptosis
same,"macrophage accumulation in the kidney, NTN",[2]; Alk3 deleted mice,did not inhibit
same,"renal injury and fibrosis, NTN",[2]; Alk-3 deleted mice,no efficacy
same,"EMT program in the tubules, NTN",[2]; control mice,inhibition
same,"macrophage accumulation in the kidney, NTN",[2]; control mice,inhibition
same,"renal function (blood urea nitrogen), NTN",[2]; control mice,restored renal function
same,"renal injury and fibrosis, NTN",[2]; control mice,successful in controlling renal injury and fibrosis
same,"apoptosis, NTN kidney",[2]; wild type kidney,inhibit apoptosis
